According to PMC4488150, “Structure-Based Optimization and Biological Evaluation of Pancreatic Lipase Inhibitors as Novel Potential Antiobesity Agents” (Natural Products and Bioprospecting, 2015):
Entries after “also recorded” stand apart in the source; their conditions may differ.

What was measured:
[1] = biological target: T1, Porcine pancreatic lipase (Sus scrofa, UniProt P00591); assay: In vitro pancreatic lipase inhibitory activity (p-nitrophenyl butyrate hydrolysis); format: biochemical; settings: for IC50: read-out: IC50 against pancreatic lipase; for pancreatic lipase inhibitory activity compared with compound A1: compared with compound A1 (best inhibitor of the first series)
T1 sequence (P00591 1-450): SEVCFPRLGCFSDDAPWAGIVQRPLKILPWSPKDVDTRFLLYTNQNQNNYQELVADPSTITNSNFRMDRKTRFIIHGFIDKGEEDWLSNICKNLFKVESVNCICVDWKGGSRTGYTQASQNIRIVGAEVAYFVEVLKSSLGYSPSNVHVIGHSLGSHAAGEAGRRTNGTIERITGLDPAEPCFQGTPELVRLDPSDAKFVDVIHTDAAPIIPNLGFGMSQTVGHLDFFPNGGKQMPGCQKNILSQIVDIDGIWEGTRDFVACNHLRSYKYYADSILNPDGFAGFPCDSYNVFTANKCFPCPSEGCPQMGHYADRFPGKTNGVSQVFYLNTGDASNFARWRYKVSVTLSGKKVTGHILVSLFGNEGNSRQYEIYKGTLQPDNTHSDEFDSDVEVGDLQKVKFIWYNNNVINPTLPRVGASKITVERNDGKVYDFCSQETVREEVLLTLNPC
Description: Compounds A1–A54 were then evaluated for their bioactivity to inhibit pancreatic lipase. Each test was performed in triplicate, and the IC50 values were calculated based on the amount of inhibitor required to produce 50 % inhibition compared with the DMSO vehicle control.
Porcine pancreatic lipase was used to evaluate the inhibitory activity of the monascus pigment derivatives. p-Nitrophenyl butyrate ([…]) was used as the substrate. First, an enzyme-buffer solution was prepared by adding 30 μL of lipase solution (in 10 mM morpholinepropanesulfonic acid (MOPS) and 1 mM EDTA, pH 6.8) to 850 μL of Tris buffer (100 mM Tris–HCl and 5 mM CaCl2, pH 7.0). Pigment solutions were prepared by dissolving each pigment in a mixture (1:1) of ethanol and distilled water. Subsequently, 100 μL of the pigment solution was mixed with 880 μL of the enzyme-buffer solution. Following incubation of the enzyme-pigment mixture for 15 min at 37 °C, 20 μL of the substrate solution (10 mM p-NPB in dimethyl formamide) was added. Enzymatic reactions were conducted for 15 min at 37 °C. The hydrolysis of p-NPB to p-nitrophenol was monitored at 400 nm using a spectrophotometer. One unit of the enzyme was defined as the amount required to liberate 1 μmol of p-nitrophenol under standard assay conditions.

[2] = test system: HFD-induced C57BL/6 J obese mice; assay: High-fat diet-induced obese mice (diet-induced obesity); format: in vivo; settings: for cholesterol (CHO) level / triglyceride (TG) level: blood after final dose
Description: Male C57BL/6 J mice were obtained from Beijing HFK Bioscience Co., Ltd. (Certificate No. SCXK 2014-0004), housed in a temperature- and humidity-controlled room with a 12-hour light/dark cycle, and allowed free access to solid food and tap water for one week prior to the experiments. All of the procedures were performed in accordance with the Institute Ethical Committee for Experimental Animal Use of the Yunnan Province and the Kunming Institute of Botany.
The kits used to determine the triglyceride (TG) and cholesterol (CHO) levels were obtained from the Zhongsheng Beikong Bioengineering Institute.
Three-week-old C57BL/6 J male mice were fed a normal diet for 1 week for acclimatization. Randomly selected mice were fed a normal diet or a 45 % fat diet. After 4 months, the body weights of the mice in the obese group were 20 % higher than those in the control group. These obese mice were randomly divided into the following three groups: the model (45 % fat diet), orlistat (45 % fat diet + orlistat) and Compound groups (45 % fat diet + compound C1). The drugs (50 mg/kg orlistat or 100 mg/kg compound C1) were intragastrically administered for 1 month. During this period, the mice were weighed once every 3 days. Following administration of the final dose, blood samples were collected via the orbital vein after ethyl ether exposure, and epididymal fat was isolated. TG and CHO levels were measured using kits. The ratio of epididymal fat to body weight represents the amount of white adipose tissue (WAT) of each mouse (normalized to the body weight).
Student’s t test was used for comparisons between groups, as indicated in Fig. 2. #p < 0.05, ## or **p < 0.01.

[3] = test system: HFD-induced C57BL/6 J obese mice; assay: as above; format: in vivo; settings: up to 400 mg/kg, data not shown
[4] = compound C1 100 mg/kg, 100 mg/kg

SMILES: CC(C)=CC[C@@]12C=C(COC(=O)CCCCCc3ccccc3)C[C@@H]1OC2=O [Compound A1, ((1R,5S)-1-(3-methylbut-2-en-1-yl)-7-oxo-6-oxabicyclo[3.2.0]hept-2-en-3-yl)methyl-6-phenylhexanoate]
- IC50 [1]: 0.083 µM

SMILES: CCCCCC[C@@H](OC(=O)[C@](OC)(c1ccccc1)C(F)(F)F)C1=C[C@@]2(CC=C(C)C)C(=O)O[C@H]2C1 [Compound B1, (R)-(R)-1-((1R,5S)-1-(3-methylbut-2-en-1-yl)-7-oxo-6-oxabicyclo[3.2.0]hept-2-en-3-yl)heptyl-3,3,3-trifluoro-2-methoxy-2-phenylpropanoate]
- IC50 [1]: 0.03 µM

SMILES: CCCCCCCCN(CCCCCCC)C(=O)C1=C[C@@]2(CC=C(C)C)C(=O)O[C@H]2C1 [Compound C1, (1R,5S)-N-heptyl-1-(3-methylbut-2-en-1-yl)-N-octyl-7-oxo-6-oxabicyclo[3.2.0]hept-2-ene-3-carboxamide]
- IC50 [1]: 0.014 µM
- pancreatic lipase inhibitory activity, fold higher than that of vibralactone ([1]; relative to vibralactone): more than 3000 fold
- in vivo activity compared with orlistat ([2]; C1 100 mg/kg vs orlistat 50 mg/kg): lower activity than that of orlistat
- body weight ([2]; compound C1 100 mg/kg, 33 days, intragastric, vs HFD model group, 100 mg/kg): gradually decreased; also recorded: weight loss; also recorded: significantly low; also recorded: significantly lower
- HFD-induced obesity ([2]; compound C1 100 mg/kg, 33 days, intragastric, 100 mg/kg): significantly decreased
- cholesterol (CHO) level [2, 4]: significantly decreased
- triglyceride (TG) level [2, 4]: significantly decreased; also recorded: significantly reduced
- fat weight (epididymal white adipose tissue, normalized to body weight) ([2]; compound C1 100 mg/kg, one month, 100 mg/kg): gradually decreased; also recorded: significantly decreased
- toxicity or adverse behavioral effects [3]: without toxicity or adverse behavioral effects

SMILES: CCCCCCCCN(CCCCCCCC)C(=O)C1=C[C@@]2(CC=C(C)C)C(=O)O[C@H]2C1 [Compound C2, (1R,5S)-1-(3-methylbut-2-en-1-yl)-N,N-dioctyl-7-oxo-6-oxabicyclo[3.2.0]hept-2-ene-3-carboxamide]
- pancreatic lipase inhibitory activity compared with compound A1 [1]: higher inhibitory activities than compound A1

SMILES: CCCCCCCN(CCCCCCC)C(=O)C1=C[C@@]2(CC=C(C)C)C(=O)O[C@H]2C1 [Compound C3, (1R,5S)-N,N-diheptyl-1-(3-methylbut-2-en-1-yl)-7-oxo-6-oxabicyclo[3.2.0]hept-2-ene-3-carboxamide]
- pancreatic lipase inhibitory activity compared with compound A1 [1]: higher inhibitory activities than compound A1

SMILES: CCCCCCCCCCC[C@@H](C[C@@H]1OC(=O)[C@H]1CCCCCC)OC(=O)[C@H](CC(C)C)NC=O [orlistat, reference compound]
- cholesterol (CHO) level ([2]; orlistat 50 mg/kg): significantly decreased
- triglyceride (TG) level ([2]; orlistat 50 mg/kg): significantly decreased
- fat weight (epididymal white adipose tissue, normalized to body weight) ([2]; orlistat 50 mg/kg, one month): gradually decreased; also recorded: significantly decreased
- body weight ([2]; orlistat 50 mg/kg, one month, intragastric): gradually decreased

SMILES: CC(C)=CC[C@@]12C=C(CO)C[C@@H]1OC2=O [vibralactone, reference compound]
- IC50 [1]: 47.3 µM
